The subject of data set [1] is hiPSC-derived OPCs. As to the kind of experiment: OPC marker immunofluorescence and flow cytometry at D34. The class given is cell-based, human. As to conditions: D34, n=3. As to the method: (§1) The identification of cell markers in the present invention uses an immunofluorescence staining method, wherein cells (NSCs, OPCs and OLs) at different culture stages were cultured on confocal Petri dishes coated with Matrigel or Matrigel with reduced growth factors, washed three times with pre-cooled PBS, and fixed with 4% paraformaldehyde (PFA) at room temperature for 15 minutes. The fixed samples were then washed three times, permeabilized and blocked with blocking solution containing 0.5% triton X-100 and 2% bovine serum albumin (BSA) for 30 min at room temperature. The diluted primary antibodies listed in Table S2 were applied to cover the cells overnight at 4° C. The next day, the corresponding secondary antibodies (listed in Table S3) were added for staining in the dark for 60 min at room temperature after washing. DAPI containing anti-fluorescence quencher was then added to the culture dish for nuclear staining. Images were taken using a confocal microscope (Zeiss, LSM880) or an inverted microscope (Nikon, Eclipse Ti2-U).
Taking flow cytometry based on anti-O4-APC antibody as an example, 2 μL antibody was added to a 98 μL of single cell suspension containing 1×10^6 cells and cell staining buffer, mixed well and incubated for 10 min in the dark in a refrigerator. After incubation, cells were washed and dried. […]
A general note: Flow cytometry measures light scatter and fluorescence of single cells or particles in a stream.

Data set [2] concerns D30 cells. As to the kind of experiment: RNA SEQ on D30 cells. Type of data set: cell-based, human. As to the method:
Total RNA was extracted using RNA rapid purification kit (ES science, Shanghai, China) according to the manufacturer's instructions. RNA library sequencing was performed on an Illumina HiseqTM 2500/4000 by Gene Denovo Biotechnology Co.,
Ltd. (Guangzhou, China). Bioinformatics analysis was performed using Omicsmart, which is a real-time interactive online platform for data analysis (http://www.omicsmart.com).

The test system of data set [3] is hiPSC-derived NSCs. As to the kind of experiment: Number of OLIG2+ spheroids in suspension culture at D20. The class given is cell-based, human. As to conditions: D20, n=3. As to the method:
(§2) In order to generate PAX6+/NESTIN+/SOX2+NSC, the dual SMAD neural induction method was used. hiPSCs with a density of ˜80% with neural induction medium (NIM) were treated from day 0 (DO) to day 7, and the medium was changed every day. Starting from D8, the medium was changed daily to fresh N2 medium containing RA (100 nM), purine amine (PUR, 1 μM) and WIN (1 μM). Starting from D12, cells were manually isolated and suspended in the ultra-low attachment plate in N2B27 medium containing RA (100 nM), PUR (1 μM) and WIN (1 μM), and the medium was changed every other day. Starting from D20, the spheroids were further suspended in PDGF-AA medium for culture. At D30, expanded spheroids were seeded on Matrigel-coated plates or Petri dishes with low growth factors in the glial differentiation medium (GDM).

Data set [4] deals with rat neuropathic pain models. As to conditions: cited from earlier work.
The test system of data set [5] is hiPSC-derived OPCs/OLs. Kind of data set: qRT-PCR relative mRNA expression in differentiating cells. Type of data set: cell-based, human. From the text: The present invention uses qRT-PCR to calculate the relative mRNA expression fold changes. The specific method is as follows: according to the manufacturer's instructions, the RNA rapid purification kit (ES science, Shanghai, China) was used to collect and purify the total RNA of cells and spinal cord tissue. After quantifying the RNA concentration with NANODROP ONE (Thermo Fisher Scientific, USA),
EasyScript® Integrated first-line cDNA synthesis Supermix and T100TM thermal cycler (BIO-RAD) was used for […] (one-step gDNA removal), and then PerfectStart Green qPCR SiperMix (TRNAS, China) and LightCycler® 96 (Roche) were used for quantification by qRT-PCR. All processes were performed according to the manufacturer's instructions. 2-AACt method was used to calculate the relative mRNA expression fold changes.
A general note: In qPCR the cycle at which signal appears reflects the starting amount.

The test system of data set [6] is hiPSC-derived OPCs. Kind of data set: Scratch assay, single-cell migration. Type of data set: cell-based, human. As to conditions: at 48h, n=3. As to the method:
In the scratch assay, 34-day-old cells were digested with pre-warmed accutase and filtered through […] cell filter to produce a single-cell suspension. After centrifugation, these single cells were seeded on a 24-well plate coated with Matrigel with reduced growth factor at the density of 2×10^6/mL and cultured with GDM. When the cell confluence reached 70-80%, a scratch was formed on the cell using 10 μL the pipette tip. After washing with DPB, fresh GDM was added to the wells. Cell images were collected at 0, 12, 24, 36, 48, 60, and 72 h using an inverted microscope. All images were measured and analyzed by Image J (i.e., software image J).

Data set [7] has as its system O4+ OPCs. Kind of data set: Nanofiber myelination assay. The class given is cell-based, human. As to conditions: after 2 weeks of culture. As to the method:
O4+ OPC isolation was performed according to the manufacturer's instructions using MACS based on anti-O4 microbeads (MiltenyiBiotec, Germany). A single cell suspension was prepared by digesting cells with pre warmed Accutase at 37° C. for 30 min at day 44. After digestion, the cell mixture was diluted with pre-cooled DMEM/F12 and centrifuged at 300 g for 5 min at room temperature. The cells were then resuspended in DMEM/F12 and filtered through […] cell filter, and cells were collected by centrifugation at 300 g for 5 min at room temperature. After mixing evenly, the cell mixture was incubated in a refrigerator for 15 min. Then 1 mL of cold MACS buffer was added and centrifuged at 300 g for 10 min. The cell pellet was resuspended in 500 μL cold MACS buffer and mixed well. Afterwards, the cell mixture was added to the MS column and pre-rinsed using 500 μL cold MACS buffer in the magnetic field of a suitable MACS separator, and the column was washed three times with 500 μL buffer. Unlabeled cells were collected from the effluent. When the column reservoir was empty, the column was placed on a 15 mL collection tube and rinse with 1 mL buffer. Magnetically labeled cells were collected from the effluent by firmly pushing the plunger into the column. The eluted O4+ rich cells were then centrifuged at 300 g for 5 min and resuspended in 1 mL GDM. […]

In data set [8] the test system is hiPSC-derived NSCs. As to the kind of experiment: OLIG2 immunostaining of hiPSC-derived NSCs at D12. Type of data set: cell-based, human. As to conditions: for effect on WIN-induced upregulation of OLIG2+ cells: co-treatment with WIN, D12. The method, then: as §2, §1
Data set [9] relates to NSC. As to the kind of experiment: Effect of WIN concentration series on NSC growth. Type of data set: cell-based, human. As to conditions: 1 μM WIN.
Data set [10] concerns hiPSC-derived OPCs. Kind of data set: In vitro maturation of OPCs to OLs (O4, GALC, MBP; immunofluorescence and flow cytometry). The class given is cell-based, human. The method, then: as §1
Taking flow cytometry based on anti-O4-APC antibody as an example, 2 μL antibody was added to a 98 μL of single cell suspension containing 1×10^6 cells and cell staining buffer, mixed well and incubated for 10 min in the dark in a refrigerator. After incubation, cells were washed and dried. The cell pellet was then resuspended in an appropriate amount of buffer and filtered through […] cell filter prior to analysis. Flow cytometry was performed on a CytoFLEX cytometer (Beckman, USA).

Data set [11] relates to hiPSC-derived cell spheres. As to the kind of experiment: Cell migration out of spheroids. Type of data set: cell-based, human. As to conditions: after 36 hours, n=40. The method, then:
In order to test the migration ability, the inventor carried out experiments on two dimensions of spheroid and single-cell state. First, the inventors have observed the ability of cells in the control and WIN groups to migrate out of the spheroids. Selected spheroids of the same size at day 30 from the control and WIN groups were seeded on 6-well plates coated with Matrigel with reduced growth factor in GDM medium. After 4, 12, 24, and 36 h, cell spheres and migrated cells were observed and imaged under an inverted microscope.

The values below come from patent US20250319136A1, “METHOD FOR PREPARING OLIGOD[…] USE” (Shenzhen ExoNeuglia Biomedical Technology Co., Ltd., priority 2022, published 2025).

For the compound `Cc1c(C(=O)c2cccc3ccccc23)c2cccc3c2n1[C@H](CN1CCOCC1)CO3` [WIN, WIN55212-2], the “cells expressing PDGFR α” value in data set [1] was “more than 95.4±2.2%”. In data set [2], the “genes down-regulated compared with control group” value is reported as 98 genes and the “genes up-regulated compared with control group” value turned out to be 983 genes. For the same compound, the “OLIG2+ spheroids relative to control group” value in data set [3] came out at 1.7 ±0.1 times. Also, the analgesic activity result in [4] is recorded as “potent analgesic”. Besides, in [5] (D30, n=3, P<0.01), the “mRNA expression level of PDGFR a compared with control group” value was “up-regulated”. For the same compound, in [5] (D55), the “mRNA expression of GALC” value is reported as “up-regulated”, the “mRNA expression of MBP” value was “up-regulated” and the “mRNA expression of PLP1” value was “up-regulated”. For the same compound, in data set [6], the “migration rate in scratch experiment” value turned out to be 44.5±1.0%. Further, in data set [7], the “area of nanofibers covered by MBP compared with control group” value is “significantly increased” and the “number of MBP+ OLs on nanofibers compared with control group” value is “significantly increased”. For the same compound, the “OLIG2-positive (OLIG2+) cells” value in [8] (1 μM WIN, D12, n=3) was found to be 95.4±0.2%. In data set [9], the “side effects on the growth of NSC” value was “no side effects on the growth of NSC”. Besides, in [10] (D44, n=4), the “percentage of O4+ cells” value came out at 42.4±2.1%. Also, in data set [10] (D55, n=3), the “cells expressing immature OL marker GALC” value is given as 86.2±5.3%. Besides, the “percentage of mature OLs co-expressing O4 and MBP” value in data set [10] (D66, n=3) came out at 37.2±2.9%. The “average migration distance of cells from cell spheres” value in [11] was found to be 203.7±6.3 μm.
For `COc1ccc(C(=O)c2c(C)n(CCN3CCOCC3)c3cc(I)ccc23)cc1` [AM630], the “effect on WIN-induced upregulation of OLIG2+ cells” value in [8] is “significantly inhibited”.
On the same count and under the same terms, under `Cc1c(C(=O)NN2CCCCC2)nn(-c2ccc(Cl)cc2Cl)c1-c1ccc(Cl)cc1` [rimonabant, Rimonabant] stands “significantly inhibited”.
